Counter-ions that a name gives are not always drawn. Like-named read-outs stand apart in the source and are kept apart here.
Key:
[1] = test system: SU-DHL-4 cells; experiment: Inhibition of cell proliferation, SU-DHL-4 cells (Cell Viability Assay, 72 h); assay type: cell-based, human; details: inhibition rate at the highest concentration of the compound
Experimental: (§1) SU-DHL-4, Mino, and SU-DHL-6 cells, in the culture medium of RPMI1640+10% FBS, were cultured in an incubator at 37° C. under 5% CO2. Cells were plated in a 96-well plate. Specifically, SU-DHL-4 cells were at 20000/well, Mino and SU-DHL-6 cells were at 5000/well, with 90 μL/well. 10 μL of the compounds at different concentrations were added to each well. There were 3 replicate wells for each concentration, and the last column, added with DMSO, was used as a vehicle control group. The cultures were continued for 72 hours at 37° C. under 5% CO2. After 72 hours, 100 μL of detection reagent (Cell Viability Assay, Promega, G7573) was added to each well, and the cultures were uniformly mixed for 2 minutes, and incubated at room temperature for 10 minutes. The fluorescence signal value was measured with a microplate reader (PHERAstar FSX). The IC50 value of the compound on cell proliferation inhibition was calculated using Origin 9.2 software, and the inhibition rate at the highest concentration of the compound (Max inhi. %) was calculated according to formula (1). Max inhi. %=(1-T72 administration/T72 vehicle)×100 Formula (1).

[2] = test system: Mino cells; experiment: Inhibition of cell proliferation, Mino cells (Cell Viability Assay, 72 h); assay type: cell-based, human; details: for Mino Max inhi. %: inhibition rate at the highest concentration of the compound
Experimental: as §1

SMILES | IC50 ([2]; Homo sapiens) | Mino Max inhi. % [2] | also measured
Nc1ncnc2c1c(-c1ccc(Oc3ccccc3)cc1)nn2[C@@H]1CCCN(C2CCC(N3CC(Oc4ccc5c(c4)C(=O)N(C4CCC(=O)NC4=O)C5=O)C3)CC2)C1 (single isomer, unassigned) [Compound 34-b] |  |  | SU-DHL-4 Max inhi. % [1]: 99.2%
Nc1ncnc2c1c(-c1ccc(Oc3ccccc3)cc1)nn2C1CCN(C2C[C@@H]3CN(C4CN(c5ccc6c(c5)C(=O)N(C5CCC(=O)NC5=O)C6=O)C4)C[C@@H]3C2)CC1 (stereo partly drawn) [Compound 59, 5-(3-((3aR,6aS)-5-(4-(4-amino-3-(4-phenoxyphenyl)-1H-pyrazolo[3,4-d]pyrimidin-1-yl)piperidin-1-yl)hexahydrocyclopenta[c]pyrrol-2(1H)-yl)azetidin-1-yl)-2-(2,6-dioxopiperidin-3-yl)isoindoline-1,3-dione] | 501 nM |  | 
Nc1ncnc2c1c(-c1ccc(Oc3ccccc3)cc1)nn2C1CCN(C2CN(C3CN(C4CN(c5ccc6c(c5)C(=O)N(C5CCC(=O)NC5=O)C6=O)C4)C3)C2)CC1 (stereo not shown) [Compound 60, 5-(3-(4-(4-amino-3-(4-phenoxyphenyl)-1H-pyrazolo[3,4-d]pyrimidin-1-yl)piperidin-1-yl)-[1,3′:1′,3″-terazetidin]-1H-yl)-2-(2,6-dioxopiperidin-3-yl)isoindoline-1,3-dione] | 165 nM |  | 
Nc1ncnc2c1c(-c1ccc(Oc3ccccc3)cc1)nn2C1CCN(C2CCN(C3CN(C4CCN(c5ccc6c(c5)C(=O)N(C5CCC(=O)NC5=O)C6=O)CC4)C3)C2)CC1 (stereo not shown) [Compound 16, 5-[4-[3-[3-[4-[4-amino-3-(4-phenoxyphenyl)pyrazolo[3,4-d]pyrimidin-1-yl]-1-piperidyl]pyrrolidin-1-yl]azetidin-1-yl]-1-piperidyl]-2-(2,6-dioxo-3-piperidyl)isoindoline-1,3-dione] |  | 99.7% | 
Nc1ncnc2c1c(-c1ccc(Oc3ccccc3)cc1)nn2C1CCN(C2C[C@@H]3CN(C4CC5(CCN(c6ccc7c(c6)C(=O)N(C6CCC(=O)NC6=O)C7=O)CC5)C4)C[C@@H]3C2)CC1 (stereo partly drawn) [Compound 52, 5-(2-((3aR,6aS)-5-(4-(4-amino-3-(4-phenoxyphenyl)-1H-pyrazolo[3,4-d]pyrimidin-1-yl)piperidin-1-yl)hexahydrocyclopenta[c]pyrrol-2(1H)-yl)-7-azaspiro[3.5]nonan-7-yl)-2-(2,6-dioxopiperidin-3-yl)isoindoline-1,3-dione] |  | 99.7% | 
Nc1ncnc2c1c(-c1ccc(Oc3ccccc3)cc1)nn2C1CCN(C2C[C@@H]3CN(C4C[C@@H]5CN(c6ccc7c(c6)C(=O)N(C6CCC(=O)NC6=O)C7=O)C[C@@H]5C4)C[C@@H]3C2)CC1 (stereo partly drawn) [Compound 53, 5-((3aR,3′aR,6aS,6′aS)-5-(4-(4-amino-3-(4-phenoxyphenyl)-1H-pyrazolo[3,4-d]pyrimidin-1-yl)piperidin-1-yl)dodecahydro-1H-[2,5′-bi(cyclopenta[c]pyrrol)]-2′(1′H)-yl)-2-(2,6-dioxopiperidin-3-yl)isoindoline-1,3-dione trifluoroacetate] |  | 99.6% | 
NC(=O)c1c(-c2ccc(Oc3ccccc3)cc2)nn2c1NCC[C@H]2C1CCN(C2CCN(c3ccc4c(c3)C(=O)N(C3CCC(=O)NC3=O)C4=O)CC2)CC1 (stereo partly drawn) [Compound 48, (7S)-7-(1′-(2-(2,6-dioxopiperidin-3-yl)-1,3-dioxo-isoindolin-5-yl)-[1,4′-bipiperidin]-4-yl)-2-(4-phenoxyphenyl)-4,5,6,7-tetrahydropyrazolo[1,5-a]pyrimidine-3-carboxamide] |  | 95.7% | 
Nc1ncnc2c1c(-c1ccc(Oc3ccccc3)cc1)nn2C1CCN(C2CN(C3CC4(CCN(c5ccc6c(c5)C(=O)N(C5CCC(=O)NC5=O)C6=O)CC4)C3)C2)CC1 (stereo not shown) [Compound 62, 5-(2-(3-(4-(4-amino-3-(4-phenoxyphenyl)-1H-pyrazolo[3,4-d]pyrimidin-1-yl)piperidin-1-yl)azetidin-1-yl)-7-azaspiro[3.5]nonan-7-yl)-2-(2,6-dioxopiperidin-3-yl)isoindoline-1,3-dione] | 38 nM |  | 
Nc1ncnc2c1c(-c1ccc(Oc3ccccc3)cc1)nn2C1CCN(C2CC3(CCN(C4CC5(CCN(c6ccc7c(c6)C(=O)N(C6CCC(=O)NC6=O)C7=O)CC5)C4)CC3)C2)CC1 (stereo not shown) [Compound 51, 5-(2′-(4-(4-amino-3-(4-phenoxyphenyl)-1H-pyrazolo[3,4-d]pyrimidin-1-yl)piperidin-1-yl)-7,7′-diaza[2,7′-bispiro[3.5]nonan]-7-yl)-2-(2,6-dioxopiperidin-3-yl)isoindoline-1,3-dione] |  | 99.7% | 
Nc1ncnc2c1c(-c1ccc(Oc3ccccc3)cc1)nn2C1CCN(C2CN(C3CCC4(CC3)CN(c3ccc5c(c3)C(=O)N(C3CCC(=O)NC3=O)C5=O)C4)C2)CC1 (stereo not shown) [Compound 54, 5-(7-(3-(4-(4-amino-3-(4-phenoxyphenyl)-1H-pyrazolo[3,4-d]pyrimidin-1-yl)piperidin-1-yl)azetidin-1-yl)-2-azaspiro[3.5]nonan-2-yl)-2-(2,6-dioxopiperidin-3-yl)isoindoline-1,3-dione] | 200 nM |  | 
Nc1ncnc2c1c(-c1ccc(Oc3ccccc3)cc1)nn2C1CCN(C2CN(C3C[C@@H]4CN(c5ccc6c(c5)C(=O)N(C5CCC(=O)NC5=O)C6=O)C[C@@H]4C3)C2)CC1 (stereo partly drawn) [Compound 61, 5-((3aR,6aS)-5-(3-(4-(4-amino-3-(4-phenoxyphenyl)-1H-pyrazolo[3,4-d]pyrimidin-1-yl)piperidin-1-yl)azetidin-1-yl)hexahydrocyclopenta[c]pyrrol-2(1H)-yl)-2-(2,6-dioxopiperidin-3-yl)isoindoline-1,3-dione] | 100 nM |  | 
Nc1ncnc2c1c(-c1ccc(Oc3ccccc3)cc1)nn2C1CCN(C2CN(C3CN(c4ccc5c(c4)C(=O)N(C4CCC(=O)NC4=O)C5=O)C3)C2)C1 (stereo not shown) [Compound 29, 5-(3-(3-(4-amino-3-(4-phenoxyphenyl)-1H-pyrazolo[3,4-d]pyrimidin-1-yl)pyrrolidin-1-yl)-[1,3′-biazetidin]-1′-yl)-2-(2,6-dioxopiperidin-3-yl)isoindoline-1,3-dione trifluoroacetate] |  | 71.2% | 
Nc1ncnc2c1c(-c1ccc(Oc3ccccc3)cc1)nn2C1CCN(C2CN(C3CCN(C4CCN(c5ccc6c(c5)C(=O)N(C5CCC(=O)NC5=O)C6=O)CC4)CC3)C2)CC1 (stereo not shown) [Compound 15, 5-[4-[4-[3-[4-[4-amino-3-(4-phenoxyphenyl)pyrazolo[3,4-d]pyrimidin-1-yl]-1-piperidyl]azetidin-1-yl]-1-piperidyl]-1-piperidyl]-2-(2,6-dioxo-3-piperidyl)isoindoline-1,3-dione] |  | 99.8% | 
Nc1ncnc2c1c(-c1ccc(Oc3ccccc3)cc1)nn2C1CCN(C2CN(C3CCN(c4ccc5c(c4)C(=O)N(C4CCC(=O)NC4=O)C5=O)CC3)C2)CC1 (stereo not shown) [Compound 23, 5-[4-[3-[4-[4-amino-3-(4-phenoxyphenyl)pyrazolo[3,4-d]pyrimidin-1-yl]-1-piperidyl]azetidin-1-yl]-1-piperidyl]-2-(2,6-dioxo-3-piperidyl)isoindoline-1,3-dione] | 295 nM |  | 
Nc1ncnc2c1c(-c1ccc(Oc3ccccc3)cc1)nn2C1CCN(C2CCN(C3CN(c4ccc5c(c4)C(=O)N(C4CCC(=O)NC4=O)C5=O)C3)CC2F)CC1 (stereo not drawn) [Compound 46-1, trans-5-(3-(4-(4-amino-3-(4-phenoxyphenyl)-1H-pyrazolo[3,4-d]pyrimidin-1-yl)-3′-fluoro-[1,4′-bipiperidin]-1′-yl)azetidin-1-yl)-2-(2,6-dioxopiperidin-3-yl)isoindoline-1,3-dione-P1] |  |  | IC50 [2]: 27 nM
Nc1ncnc2c1c(-c1ccc(Oc3ccccc3)cc1)nn2C1CCN(C2CCN(C3CN(c4ccc5c(c4)C(=O)N(C4CCC(=O)NC4=O)C5=O)C3)C2)CC1 (stereo not shown) [Compound 24, 5-[3-[3-[4-[4-amino-3-(4-phenoxyphenyl)pyrazolo[3,4-d]pyrimidin-1-yl]-1-piperidyl]pyrrolidin-1-yl]azetidin-1-yl]-2-(2,6-dioxo-3-piperidyl)isoindoline-1,3-dione] | 629 nM |  | 
Nc1ncnc2c1c(-c1ccc(Oc3ccccc3)cc1)nn2C1CCN(C2CC3(CCN(C4CN(c5ccc6c(c5)C(=O)N(C5CCC(=O)NC5=O)C6=O)C4)CC3)C2)CC1 (stereo not shown) [Compound 50, 5-(3-(2-(4-(4-amino-3-(4-phenoxyphenyl)-1H-pyrazolo[3,4-d]pyrimidin-1-yl)piperidin-1-yl)-7-azaspiro[3.5]nonan-7-yl)azetidin-1-yl)-2-(2,6-dioxopiperidin-3-yl)isoindoline-1,3-dione] | 112 nM |  | 
NC(=O)c1c(-c2ccc(Oc3ccccc3)cc2)nn2c1NCC[C@H]2C1CCN(C2CN(C3CN(c4ccc5c(c4)C(=O)N(C4CCC(=O)NC4=O)C5=O)C3)C2)CC1 (stereo partly drawn) [Compound 31, (7S)-7-[1-[1-[1-[2-(2,6-dioxo-3-piperidyl)-1,3-dioxo-isoindolin-5-yl]azetidin-3-yl]azetidin-3-yl]-4-piperidyl]-2-(4-phenoxyphenyl)-4,5,6,7-tetrahydropyrazolo[1,5-a]pyrimidine-3-carboxamide trifluoroacetate] |  | 78.3% | 
Nc1ncnc2c1c(-c1ccc(Oc3ccccc3)cc1)nn2C1CCN(C2CC3CCC(C2)N3c2ccc3c(c2)C(=O)N(C2CCC(=O)NC2=O)C3=O)CC1 (stereo not shown) [Compound 58, 5-(3-(4-(4-amino-3-(4-phenoxyphenyl)-1H-pyrazolo[3,4-d]pyrimidin-1-yl)piperidin-1-yl)-8-azabicyclo[3.2.1]octan-8-yl)-2-(2,6-dioxopiperidin-3-yl)isoindoline-1,3-dione] |  | 95.3% | 
